# Test results published in US20120046363A1, “DOCOSAHEXAENOIC ACID FOR THE TREATMENT OF HEART FAILURE” (University of Maryland, Baltimore, priority 2009, published 2012).
# How the values were obtained:
# [1] = molecular target: T1, tumor necrosis factor (Homo sapiens, UniProt P01375); conditions: direct cytokine blockade; cited from earlier work
# T1 construct: host or cells: heart-failure patients
# [2] = tested on: isolated cardiac mitochondria; experiment: Cardiac mitochondrial phospholipid fatty acid composition by gas chromatography; type: in vivo, male Wistar rats; conditions: Series 1, 8 weeks diet, mean ± SEM; for Mitochondrial phospholipid C16:0: n = 7-8/group; for Mitochondrial phospholipid C20:3n6 / Mitochondrial phospholipid C20:5n3: BQL in control; for Mitochondrial phospholipid C22:6n3: DHA; for Mitochondrial phospholipid C20:5n3: EPA; for Mitochondrial phospholipid C20:4n6: arachidonic acid (ARA)
# Protocol: (§1) Experimental Design: The animal protocol was conducted according to the Guideline for the Care and Use of Laboratory Animals (NIH publication 85-23) and was approved by the University of Maryland School of Medicine Institutional Animal Care and Use Committee. Investigators were blinded to treatment when measurements were performed. The animals were maintained on a reverse 12-h light-dark cycle and all procedures were performed in the fed state between 3 and 6 h from the start of the dark phase. Two series of experiments were performed. In the initial studies (Series 1) male Wistar rats weighing 190-200 g were fed a standard low fat diet (CTRL) or modified standard diet containing DHA or EPA at 2.5% of total caloric intake, which corresponds to a human intake of approximately 5.5 g/day (calculated assuming an energy intake of 2000 kcal/day and 9 kcal/g of fat). The rats were maintained on the diet for 8 weeks. Following dietary treatment, rats were anesthetized with isoflurane, blood was drawn, and the heart was harvested for biochemical analysis and mitochondrial isolation. Plasma from these animals was analyzed for free fatty acids and triglyceride levels, and cardiac mitochondria for respiration, Ca^2+ retention capacity (an index of MPTP opening), VDAC and cyclophilin D, and membrane phospholipid composition as described below. Following completion of Series 1, a second series of animal studies (Series 2) were performed to assess mitochondrial swelling using a light scattering assay, and the effects of different respiratory substrates on Ca^2+ retention capacity in mitochondria from control and DHA supplemented rats. Animals were treated for 10 weeks and were fed either CTRL or DHA (2.5% of total caloric intake).
# (§2) Mitochondrial Preparation: Mitochondria were isolated as previously described^228. LV tissue (400-500 mg) was minced and homogenized in 1:10 cold modified Chappel-Perry buffer (100 mM KCl, 50 mM MOPS, 5 mM MgSO4, 1 mM ATP, 1 mM EGTA, 2 mg/ml BSA), and the homogenates were centrifuged at 500×g. Subsequent centrifugation allowed for separation and purification of the subsarcolemmal mitochondria. The concentration of mitochondrial protein was measured by the Lowry method using bovine serum albumin as a standard.
# (§3) Membrane Lipid Composition: Cardiac phospholipid fatty acid composition was assessed in a subset of animals from Series 1 (n=7-9/group) on isolated cardiac mitochondria homogenates by gas chromatography with a flame ionization detector according to a modification of the transesterification method as previously described^228. CL composition was assessed on isolated cardiac mitochondria by electrospray ionization mass spectrometry using 1,1′,2,2′-tetramyristoyl CL as an internal standard as previously described (n=9/group)^228,229, 230.
# [3] = tested on: isolated cardiac mitochondria; experiment: Cardiac mitochondrial cardiolipin (CL) content and composition by electrospray ionization mass spectrometry; type: in vivo, male Wistar rats; conditions: for total CL content: Series 1, 8 weeks diet, CTRL 10.7±0.8, DHA vs CTRL p<0.08
# Protocol: as §1, with “Following completion of Series 1, a second series of animal studies (Series 2) were performed to assess mitochondrial swelling using a light scattering assay, and the effects of different respiratory substrates on Ca^2+ retention capacity in mitochondria from control and DHA supplemented rats. Animals were treated for 10 weeks and were fed either CTRL or DHA (2.5% of total caloric intake).” left out
# Mitochondrial Preparation: Mitochondria were isolated as previously described^228. […] The concentration of mitochondrial protein was measured by the Lowry method using bovine serum albumin as a standard.
# as §3
# [4] = tested on: isolated cardiac mitochondria; experiment: Mitochondrial respiration (oxygen consumption, Clark-type electrode); type: in vivo, male Wistar rats; conditions: for P:O: measurements without oligomycin; for RCR: ratio of State 3 to State 4 rate with oligomycin; for decrease of state 4 respiration / increase of RCR: pyruvate+malate, vs control, p<0.05; for decrease of state 4 respiration: absence and presence of oligomycin
# Protocol: as §1, §2
# Mitochondrial respiration: Mitochondrial oxygen consumption was measured using a Clark-type oxygen electrode (Qubit Systems, Ontario, Canada). Mitochondria (0.25 mg protein) were suspended in 0.5 ml solution consisting of 100 mM KCl, 50 mM MOPS, 5 mM KH2PO4, 1 mM EGTA, and 0.5 mg fatty acid-free bovine serum albumin, at pH 7.4 and 37° C. State 3 (ADP-stimulated) and state 4 (non-phosphorylating) respiration were measured with glutamate+malate (10 and 5 mM, respectively), pyruvate+malate (10 and 5 mM, respectively) and palmitoylcarnitine+malate (40 μM and 5 mM, respectively) to assess respiration through complex I-IV, while succinate+rotenone (10 mM and 7.5 μM, respectively), were used to assess respiration through complex II-IV of the ETC exclusively. State 4 respiration was also measured in the presence of oligomycin to inhibit the mitochondrial ATP synthase.
# [5] = tested on: mitochondrial permeability transition pore (MPTP); experiment: Ca2+ retention capacity (index of MPTP opening) in mitochondria from diet-treated rats, Series 1; type: in vivo, male Wistar rats
# Protocol: as §1, §2
# [6] = tested on: VDAC1; experiment: Western blot of isolated mitochondria, densitometry; type: in vivo, male Wistar rats; conditions: CTRL 1.00 ± 0.13
# Protocol: (§4) Metabolic and Biochemical Parameters: Free fatty acids and triglycerides were assessed in the plasma using commercially available kits (Wako, Richmond, Va.). Mitochondrial proteins were separated by electrophoresis in 4-12% NuPage gels, transferred onto a nitrocellulose membrane, and incubated with specific antibodies to cyclophilin D and voltage-dependent anion channel (VDAC) (1:10,000 and 1:5000, respectively, both from Mitosciences, Eugene, Oreg.). Fluorescence-conjugated secondary antibodies (IRDye 800, 1:10,000; LI-COR Bioscience) were used for incubation before the membranes were scanned with Odyssey® infrared imaging system (LI-COR Bioscience). The digitized image was analyzed with Odyssey® software.
# [7] = tested on: VDAC2; experiment: as above; type: in vivo, male Wistar rats; conditions: CTRL 1.00 ± 0.15
# Protocol: as §4
# [8] = tested on: cyclophilin D; experiment: as above; type: in vivo, male Wistar rats; conditions: CTRL 1.00 ± 0.08
# Protocol: as §4
# [9] = Plasma free fatty acids and triglycerides after dietary supplementation (Series 1); type: in vivo, male Wistar rats; conditions: 2.5% of caloric intake, 8 weeks, FIG. 7
# Protocol: as §1, with “Following dietary treatment, rats were anesthetized with isoflurane, blood was drawn, and the heart was harvested for biochemical analysis and mitochondrial isolation.” left out, “Following completion of Series 1, a second series of animal studies (Series 2) were performed to assess mitochondrial swelling using a light scattering assay, and the effects of different respiratory substrates on Ca^2+ retention capacity in mitochondria from control and DHA supplemented rats. Animals were treated for 10 weeks and were fed either CTRL or DHA (2.5% of total caloric intake).” left out
# Metabolic and Biochemical Parameters: Free fatty acids and triglycerides were assessed in the plasma using commercially available kits (Wako, Richmond, Va.). […] The digitized image was analyzed with Odyssey® software.
# [10] = glutamate + malate, without CsA, CTRL 83.0±8.7
# [11] = mitochondria of diet group with addition of 100 nM CsA
# T1 sequence (P01375 77-233 limits assumed): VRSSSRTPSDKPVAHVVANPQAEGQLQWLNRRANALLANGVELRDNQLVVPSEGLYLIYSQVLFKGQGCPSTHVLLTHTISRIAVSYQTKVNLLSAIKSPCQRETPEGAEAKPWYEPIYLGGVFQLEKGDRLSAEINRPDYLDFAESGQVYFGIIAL
compound,measurement,setting,value
ETANERCEPT,efficacy in HF patients,[1],not effective
"CC/C=C\C/C=C\C/C=C\C/C=C\C/C=C\C/C=C\CCC(=O)O [DHA, docosahexaenoic acid]",Mitochondrial phospholipid C18:0,[2],18.9 ± 0.5 molar percent of total phospholipid fatty acid
same,Mitochondrial phospholipid C18:1n7,[2],3.7 ± 0.2 molar percent of total phospholipid fatty acid
same,Mitochondrial phospholipid C18:1n9,[2],13.0 ± 1.0 molar percent of total phospholipid fatty acid
same,Mitochondrial phospholipid C18:2n6,[2],23.1 ± 1.0 molar percent of total phospholipid fatty acid
same,Mitochondrial phospholipid Total ω-3 PUFA,[2],19.2 ± 0.5 molar percent of total phospholipid fatty acid
same,Mitochondrial phospholipid C16:0,[2],13.3 ± 0.5 molar percent of total phospholipid fatty acid
same,Mitochondrial phospholipid C20:3n6,[2],1.6 ± 0.2 molar percent of total phospholipid fatty acid
same,Mitochondrial phospholipid C22:6n3,[2],14.8 ± 0.6 molar percent of total phospholipid fatty acid
same,Mitochondrial phospholipid C20:5n3,[2],4.4 ± 0.3 molar percent of total phospholipid fatty acid
same,Mitochondrial phospholipid C20:4n6,[2],5.7 ± 0.2 molar percent of total phospholipid fatty acid
same,total CL content,[3],13.2±0.8 nmols/mg mito prot
same,State 4 (+ oligomycin) respiration,[4]; Glutamate + Malate,17.2 ± 2.0 ng atoms O · mg^−1 · min^−1
same,State 4 (− oligomycin) respiration,[4]; Glutamate + Malate,35.3 ± 2.9 ng atoms O · mg^−1 · min^−1
same,State 3 respiration,"[4]; Glutamate + Malate, mean ± SEM",115.2 ± 16.2 ng atoms O · mg^−1 · min^−1
same,P:O,[4]; Glutamate + Malate,2.37 ± 0.18
same,RCR,[4]; Glutamate + Malate,7.0 ± 0.9
same,State 3 respiration,[4]; Palmityl-carnitine + Malate,265.7 ± 34.4 ng atoms O · mg^−1 · min^−1
same,State 4 (+ oligomycin) respiration,[4]; Palmityl-carnitine + Malate,24.9 ± 2.6 ng atoms O · mg^−1 · min^−1
same,State 4 (− oligomycin) respiration,[4]; Palmityl-carnitine + Malate,42.6 ± 1.9 ng atoms O · mg^−1 · min^−1
same,P:O,[4]; Palmityl-carnitine + Malate,2.50 ± 0.12
same,RCR,[4]; Palmityl-carnitine + Malate,11.4 ± 1.8
same,State 3 respiration,[4]; Pyruvate + Malate,240.4 ± 28.7 ng atoms O · mg^−1 · min^−1
same,State 4 (+ oligomycin) respiration,[4]; Pyruvate + Malate,34.8 ± 4.2 ng atoms O · mg^−1 · min^−1
same,State 4 (− oligomycin) respiration,[4]; Pyruvate + Malate,54.0 ± 3.2 ng atoms O · mg^−1 · min^−1
same,P:O,[4]; Pyruvate + Malate,2.48 ± 0.09
same,RCR,[4]; Pyruvate + Malate,7.7 ± 1.0
same,State 3 respiration,[4]; Succinate + Rotenone,325.2 ± 19.6 ng atoms O · mg^−1 · min^−1
same,State 4 (+ oligomycin) respiration,[4]; Succinate + Rotenone,84.7 ± 10.1 ng atoms O · mg^−1 · min^−1
same,State 4 (− oligomycin) respiration,[4]; Succinate + Rotenone,99.3 ± 7.0 ng atoms O · mg^−1 · min^−1
same,P:O,[4]; Succinate + Rotenone,1.48 ± 0.06
same,RCR,[4]; Succinate + Rotenone,4.1 ± 0.4
same,decrease of state 4 respiration,[4],30%
same,increase of RCR,[4],70%
same,Ca2+ required to elicit MPTP,[5]; [10],134.9±11.4 nmol Ca^2+/mg mito prot
same,Ca2+ required to elicit MPTP,[5]; [11],147.0±17.3 nmol Ca^2+/mg mito prot
same,"VDAC 1 protein, densitometry",[6],1.03 ± 0.22
same,"VDAC 2 protein, densitometry",[7],1.02 ± 0.20
same,"Cyclophilin D protein, densitometry",[8],1.01 ± 0.10
"CC/C=C\C/C=C\C/C=C\C/C=C\C/C=C\CCCC(=O)O [EPA, eicosapentanoic acid]",plasma free fatty acid concentration compared to CTRL,[9],lowered
same,plasma triglyceride concentration compared to CTRL,[9],lowered
same,Mitochondrial phospholipid C18:0,[2],19.8 ± 0.8 molar percent of total phospholipid fatty acid
same,Mitochondrial phospholipid C18:1n7,[2],4.2 ± 0.2 molar percent of total phospholipid fatty acid
same,Mitochondrial phospholipid C18:1n9,[2],11.8 ± 1.0 molar percent of total phospholipid fatty acid
same,Mitochondrial phospholipid C18:2n6,[2],22.4 ± 0.8 molar percent of total phospholipid fatty acid
same,Mitochondrial phospholipid Total ω-3 PUFA,[2],14.3 ± 0.3 molar percent of total phospholipid fatty acid
same,Mitochondrial phospholipid C16:0,[2],10.8 ± 0.6 molar percent of total phospholipid fatty acid
same,Mitochondrial phospholipid C16:1,[2]; BQL = below the quantifiable limit (limit of detection = 0.41%),4.5 ± 1.8 molar percent of total phospholipid fatty acid
same,Mitochondrial phospholipid C20:3n6,[2],1.1 ± 0.2 molar percent of total phospholipid fatty acid
same,Mitochondrial phospholipid C22:6n3,[2],8.3 ± 0.2 molar percent of total phospholipid fatty acid
same,Mitochondrial phospholipid C20:5n3,[2],6.0 ± 0.2 molar percent of total phospholipid fatty acid
same,Mitochondrial phospholipid C20:4n6,[2],9.8 ± 0.8 molar percent of total phospholipid fatty acid
same,total CL content,[3],11.1±0.8 nmols/mg mito prot
same,CL species containing one ARA and three linoleic acid moieties (ARA1L3CL),"[3]; Series 1, compared to CTRL, FIG. 9",decrease
same,State 4 (+ oligomycin) respiration,[4]; Glutamate + Malate,19.1 ± 3.3 ng atoms O · mg^−1 · min^−1
same,State 4 (− oligomycin) respiration,[4]; Glutamate + Malate,32.1 ± 4.8 ng atoms O · mg^−1 · min^−1
same,State 3 respiration,"[4]; Glutamate + Malate, mean ± SEM",119.3 ± 13.4 ng atoms O · mg^−1 · min^−1
same,P:O,[4]; Glutamate + Malate,2.76 ± 0.23
same,RCR,[4]; Glutamate + Malate,7.0 ± 1.0
same,State 3 respiration,[4]; Palmityl-carnitine + Malate,243.7 ± 28.1 ng atoms O · mg^−1 · min^−1
same,State 4 (+ oligomycin) respiration,[4]; Palmityl-carnitine + Malate,29.7 ± 3.8 ng atoms O · mg^−1 · min^−1
same,State 4 (− oligomycin) respiration,[4]; Palmityl-carnitine + Malate,59.4 ± 7.0 ng atoms O · mg^−1 · min^−1
same,P:O,[4]; Palmityl-carnitine + Malate,2.57 ± 0.14
same,RCR,[4]; Palmityl-carnitine + Malate,9.5 ± 1.8
same,State 3 respiration,[4]; Pyruvate + Malate,221.2 ± 31.0 ng atoms O · mg^−1 · min^−1
same,State 4 (+ oligomycin) respiration,[4]; Pyruvate + Malate,43.3 ± 5.2 ng atoms O · mg^−1 · min^−1
same,State 4 (− oligomycin) respiration,[4]; Pyruvate + Malate,63.5 ± 6.4 ng atoms O · mg^−1 · min^−1
same,P:O,[4]; Pyruvate + Malate,2.44 ± 0.30
same,RCR,[4]; Pyruvate + Malate,5.1 ± 0.3
same,State 3 respiration,[4]; Succinate + Rotenone,307.2 ± 37.1 ng atoms O · mg^−1 · min^−1
same,State 4 (+ oligomycin) respiration,[4]; Succinate + Rotenone,80.3 ± 11.7 ng atoms O · mg^−1 · min^−1
same,State 4 (− oligomycin) respiration,[4]; Succinate + Rotenone,102.1 ± 11.5 ng atoms O · mg^−1 · min^−1
same,P:O,[4]; Succinate + Rotenone,1.48 ± 0.08
same,RCR,[4]; Succinate + Rotenone,4.1 ± 0.5
same,decrease of state 4 respiration,[4],no effect
same,increase of RCR,[4],no effect
same,Ca2+ required to elicit MPTP,[5]; [10],80.8±4.9 nmol Ca^2+/mg mito prot
same,Ca2+ required to elicit MPTP,[5]; [11],130.6±12.8 nmol Ca^2+/mg mito prot
same,"VDAC 1 protein, densitometry",[6],0.87 ± 0.16
same,"VDAC 2 protein, densitometry",[7],0.94 ± 0.17
same,"Cyclophilin D protein, densitometry",[8],1.00 ± 0.08
